The results in this text go back to PubChem BioAssay (NCI).

What all share (assay): growth of human tumour cells (NCI), 48 h
Assay [1] concerns SK-OV-3 ovarian.
Assay [2] concerns 786-0 renal.
Assay [3] concerns NCI-H23 lung.
The subject of assay [4] is SF-539 CNS.
Assay [5] concerns SK-MEL-2 melanoma.
In assay [6] the test system is DU-145 prostate.
For assay [7], the system named is HOP-92 NSCLC.
Assay [8] concerns ACHN renal.
Assay [9] has as its system KM12 colon.
For assay [10], the system named is A549 NSCLC.

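Each compound was tested at five concentrations against cells in 96-well plates for 48 hours. GI50 marks 50% less growth. TGI marks complete inhibition of growth.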

As to `C[C@]12CC/C(=N\N)C[C@@H]1CC[C@@H]1[C@@H]2CC[C@]2(C)/C(=N/N)CC[C@@H]12`, the GI50 in [1] was more than 100 µM; in [2] it was more than 100 µM; in assay [3], more than 100000 nM; in assay [4], more than 100000 nM; in assay [5] it was more than 100 µM; in assay [6], more than 100000 nM. In addition, the GI50 in [7] is more than 100000 nM; in [8] it was more than 100 µM; in assay [9], more than 100000 nM; in assay [10], more than 100 µM. Also, the TGI in assay [1], in assay [2], in [3], in assay [4], in assay [5] and in assay [6] was more than 100 µM in each case. Besides, the TGI in assay [7], in assay [8], in assay [9] and in [10] was more than 100 µM each time.
Consider `COc1cc(C(=O)/C=C/c2c(-c3ccc(F)cc3)nc3sc(C)cn23)cc(OC)c1OC`, for which the GI50 is 6.12 µM in assay [1]; 8.88 µM in [2]; 2240 nM in assay [3]; 6230 nM in [4]; 5.75 µM in assay [5]; 7520 nM in [6]. Also, the GI50 in assay [7] was 155 nM; in [8], 5.83 µM; in assay [9], 3630 nM; in [10], 9.34 µM. The TGI is more than 100 µM in assay [1]; more than 100 µM in [2]; 8.87 µM in assay [3]; more than 100 µM in assay [4]; more than 100 µM in assay [5]; more than 100 µM in [6]. Further, the TGI in assay [7] was 6.32 µM; in assay [8], more than 100 µM; in [9] it was more than 100 µM; in assay [10], more than 100 µM.
As for `O=S1(=O)N(Cc2ccccc2)[C@@H](Cc2ccccc2)C2O[C@H]2[C@H](Cc2ccccc2)N1Cc1ccccc1` (some centres undefined), the GI50 was more than 7.5 µM in assay [1]; 5.12 µM in assay [2]; 3470 nM in assay [3]; more than 7500 nM in [4]; more than 7.5 µM in [5]; more than 7500 nM in assay [6]. Moreover, the GI50 in assay [7] is more than 7500 nM; in assay [8], 5.88 µM; in assay [9], 7190 nM; in assay [10] it was 3.78 µM. Besides, the TGI in [1], in assay [2], in [3], in assay [4], in assay [5] and in [6] was more than 7.5 µM in each case. The TGI in assay [7], in [8], in assay [9] and in assay [10] was more than 7.5 µM throughout.
For `COc1ccc(C2=CC(c3cc(OC)c(OC)c(OC)c3)NC(=O)N2)cc1OC` (centres undefined), the GI50 in assay [1] is 3.67 µM; in assay [2] it was 4.65 µM; in assay [3], 3480 nM; in [4] it was 2280 nM; in assay [5], 4.96 µM; in assay [6], 1900 nM. Moreover, the GI50 is 12500 nM in assay [7], 3.5 µM in assay [8], 2250 nM in assay [9] and 4.74 µM in assay [10]. Also, the TGI in [1] was more than 100 µM; in [2], 15.6 µM; in assay [3], 17.5 µM; in assay [4], 5.94 µM; in [5] it was 24.3 µM; in assay [6], 4.45 µM. Further, the TGI in assay [7] is more than 100 µM; in assay [8] it was 43.6 µM; in assay [9] it was 6.12 µM; in assay [10], more than 100 µM.
As for `Cc1nc2cncc(C#Cc3cncc(C(=O)Nc4ccc(CN5CCN(C)CC5)c(C(F)(F)F)c4)c3)c2nc1C`, the GI50 in assay [1] is 0.251 µM; in assay [2], 0.925 µM; in assay [3] it was 770 nM; in [4], 207 nM; in assay [5], 0.204 µM; in assay [6] it was 349 nM. In addition, the GI50 in [7] was 204 nM; in assay [8], 0.183 µM; in assay [9], 5 nM; in assay [10] it was 0.585 µM. For the same compound, the TGI in assay [1] amounted to 5.62 µM; in assay [2], 7.4 µM; in assay [3] it was 6.05 µM; in assay [4] it was 1.02 µM; in [5], 0.94 µM; in assay [6], 6.48 µM. Moreover, the TGI was 1.13 µM in assay [7], 2.53 µM in [8], 2.98 µM in assay [9] and 7.28 µM in [10].
On to `Cn1c(=O)c(Oc2cccc(F)c2)cc2cnc(NC3CCOCC3)nc21`, for which the GI50 is more than 25 µM in assay [1]; more than 25 µM in assay [2]; more than 25000 nM in assay [3]; more than 25000 nM in assay [4]; more than 25 µM in assay [5]; more than 25000 nM in [6]. Further, the GI50 in assay [7] is 4470 nM; in [8] it was more than 25 µM; in assay [9], more than 25000 nM; in [10], more than 25 µM. The TGI in [1], in [2], in assay [3], in assay [4], in assay [5] and in [6] was more than 25 µM throughout. For the same compound, the TGI was 24.5 µM in assay [7], more than 25 µM in assay [8], more than 25 µM in assay [9] and more than 25 µM in assay [10].
As for `O=Nc1c(-c2cccc([N+](=O)[O-])c2)nc2cnccn12`, the TGI was more than 100 µM in assay [1]; 37.4 µM in assay [2]; 36.1 µM in [3]; 59.1 µM in assay [4]; 68.1 µM in [5]; 40.2 µM in assay [6]. The TGI in assay [7] came out at 38.4 µM; in assay [8] it was 14.2 µM; in [9], 95.4 µM; in [10] it was 83.8 µM.
In the case of `CCCCCCCCCCCCCC[P+](CCCCCC)(CCCCCC)CCCCCC`, the GI50 is 0.2 µM in assay [1]; 0.253 µM in assay [2]; 83 nM in assay [3]; 202 nM in [4]; 0.0266 µM in assay [5]; 85.7 nM in assay [6]. Further, the GI50 was 29.9 nM in [7], 0.26 µM in [8], 39.7 nM in assay [9] and 0.292 µM in [10]. Also, the TGI was 2.1 µM in [2]; 1.4 µM in assay [3]; 1.72 µM in [4]; more than 100 µM in [5]; 1.68 µM in assay [6]; 0.423 µM in [7]. The results for the TGI in assay [8], in assay [9] and in assay [10] were 1.51 µM, 0.375 µM and more than 100 µM, respectively.
For the compound `C=C(C)C(=O)OC1CC2(C)OC2CC(OC(C)=O)/C(C)=C/C2OC(=O)C(=C)C21` (centres undefined), the TGI in [1] was more than 91.3 µM; in assay [2] it was 6.37 µM; in assay [3] it was 19.4 µM; in assay [4], 8.57 µM; in [5], 18.1 µM; in assay [6], 4.7 µM. In addition, the TGI turned out to be 12.5 µM in assay [7], 3.34 µM in assay [8], 33.7 µM in assay [9] and 42.5 µM in assay [10].
With `Cc1ccccc1S(=O)(=O)N1[C@H](c2ccc(Cl)cc2)C(C(=O)N[C@@H](Cc2ccccc2)C(N)=O)=C[C@@H]1C(C)(C)C`, the GI50 in assay [1] is 8.5 µM; in [2] it was 9.46 µM; in assay [3], 8050 nM; in [4], 6610 nM; in [5], 9.59 µM; in [6] it was 8260 nM. Besides, the GI50 in [7] was 7240 nM; in assay [8], 2.95 µM; in [9], 4490 nM; in assay [10], 3.43 µM. Also, the TGI stood at 21.7 µM in [1]; 23.9 µM in [2]; 17.6 µM in assay [3]; 13.4 µM in assay [4]; 17.6 µM in [5]; 20.4 µM in assay [6]. In addition, the TGI in assay [7] worked out at 17.4 µM; in assay [8] it was 9.83 µM; in assay [9], 13.3 µM; in assay [10], 13.1 µM.
In the case of `NS(=O)(=O)c1ccc(C2C3=C(CCCC3=O)OC3=C2C(=O)c2ccccc2C3=O)cc1` (centres undefined), the GI50 in [1] is 1.99 µM; in [2], 1.64 µM; in assay [3], 198 nM; in [4], 277 nM; in assay [5], 0.604 µM; in [6], 740 nM. The GI50 in assay [7] was 847 nM; in assay [8], 1.24 µM; in assay [9], 1220 nM; in assay [10], 1.42 µM. The TGI was determined as 3.76 µM in assay [1]; 3.02 µM in assay [2]; 1.15 µM in assay [3]; 0.761 µM in assay [4]; 2.38 µM in assay [5]; 1.99 µM in assay [6]. Further, the TGI in assay [7] amounted to 2.48 µM; in assay [8] it was 2.53 µM; in assay [9], 3.27 µM; in [10], 3.53 µM.
